{
  "source": "paper PMC3390922",
  "about": "(The Journal of Neuroscience, 2010)",
  "key": {"D1/D5 dopamine receptors": {"target": "D1/D5 dopamine receptors", "test": "Saturation binding of [3H]-SCH23390 to membranes", "design": "species or system mouse", "conditions": "membranes from C57Bl/6 mice (data not shown)"}, "D2/D3 dopamine receptors": {"target": "D2/D3 dopamine receptors", "test": "Saturation binding of [3H]-raclopride to membranes", "design": "species or system mouse", "conditions": "membranes from C57Bl/6 mice (data not shown)"}, "[1]": {"tested_on": "WT, α6^L9′S, α4KO, and α4KO/α6^L9′S mice", "conditions": "mouse, in vivo"}, "[2]": {"conditions": "in vivo; cited from earlier work"}, "[3]": {"target": "(non-α6) α4β2* nAChRs in α6^L9′S mice (Mus musculus, UniProt O70174+Q9ERK7)", "sequence (O70174 31-629)": "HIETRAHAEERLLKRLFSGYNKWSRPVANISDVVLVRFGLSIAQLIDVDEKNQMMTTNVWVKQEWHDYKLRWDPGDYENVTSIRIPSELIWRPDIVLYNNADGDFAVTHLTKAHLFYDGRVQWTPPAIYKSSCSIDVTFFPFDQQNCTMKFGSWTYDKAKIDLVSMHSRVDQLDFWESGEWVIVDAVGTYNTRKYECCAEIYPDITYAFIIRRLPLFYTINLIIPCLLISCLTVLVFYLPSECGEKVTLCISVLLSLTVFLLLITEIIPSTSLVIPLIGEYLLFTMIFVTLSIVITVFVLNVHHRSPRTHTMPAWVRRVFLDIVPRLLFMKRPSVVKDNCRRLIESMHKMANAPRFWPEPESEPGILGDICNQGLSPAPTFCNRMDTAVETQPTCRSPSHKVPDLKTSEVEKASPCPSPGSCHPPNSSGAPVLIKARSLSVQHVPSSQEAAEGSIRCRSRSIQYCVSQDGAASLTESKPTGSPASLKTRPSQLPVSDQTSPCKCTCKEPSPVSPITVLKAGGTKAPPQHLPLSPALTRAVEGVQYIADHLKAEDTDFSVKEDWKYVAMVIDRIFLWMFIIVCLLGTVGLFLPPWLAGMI", "sequence (Q9ERK7 26-501)": "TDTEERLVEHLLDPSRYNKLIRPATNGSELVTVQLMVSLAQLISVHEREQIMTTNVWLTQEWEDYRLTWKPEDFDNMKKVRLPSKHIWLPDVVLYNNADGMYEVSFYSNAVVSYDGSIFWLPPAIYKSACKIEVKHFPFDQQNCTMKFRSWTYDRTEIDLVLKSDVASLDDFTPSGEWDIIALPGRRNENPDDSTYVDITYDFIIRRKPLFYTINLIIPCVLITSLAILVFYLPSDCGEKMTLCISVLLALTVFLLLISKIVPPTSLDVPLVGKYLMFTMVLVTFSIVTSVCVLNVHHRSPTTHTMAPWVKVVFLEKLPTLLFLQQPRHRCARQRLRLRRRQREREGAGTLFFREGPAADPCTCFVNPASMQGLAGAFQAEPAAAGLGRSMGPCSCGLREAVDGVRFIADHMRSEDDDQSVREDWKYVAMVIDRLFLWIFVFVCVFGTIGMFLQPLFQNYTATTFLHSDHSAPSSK"}, "α6α4β2β3 nAChRs": {"tested_on": "α6α4β2β3 nAChRs", "conditions": "cited from earlier work"}, "[4]": {"target": "α6* nAChRs (αCtxMII-sensitive, α6β2*) (Mus musculus, UniProt Q9ERK7+Q9R0W9)", "sequence (Q9R0W9 31-494)": "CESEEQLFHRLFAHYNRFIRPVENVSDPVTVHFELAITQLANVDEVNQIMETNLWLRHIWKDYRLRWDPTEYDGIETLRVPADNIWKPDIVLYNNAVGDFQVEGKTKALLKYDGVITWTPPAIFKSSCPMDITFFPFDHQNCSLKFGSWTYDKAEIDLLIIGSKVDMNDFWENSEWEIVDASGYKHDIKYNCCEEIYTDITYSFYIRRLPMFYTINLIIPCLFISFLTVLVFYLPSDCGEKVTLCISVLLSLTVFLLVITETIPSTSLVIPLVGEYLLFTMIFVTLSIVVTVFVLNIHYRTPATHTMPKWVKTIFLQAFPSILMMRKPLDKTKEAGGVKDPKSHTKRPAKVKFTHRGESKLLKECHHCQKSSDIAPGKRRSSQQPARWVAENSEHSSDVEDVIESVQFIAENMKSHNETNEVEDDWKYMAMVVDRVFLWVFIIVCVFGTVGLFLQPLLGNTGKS", "sequence (Q9ERK7 26-501)": "as the sequence (Q9ERK7 26-501) above", "sequence (O70174 31-629, further chain)": "as the sequence (O70174 31-629) above", "sequence (Q8BMN3 31-464, further chain)": "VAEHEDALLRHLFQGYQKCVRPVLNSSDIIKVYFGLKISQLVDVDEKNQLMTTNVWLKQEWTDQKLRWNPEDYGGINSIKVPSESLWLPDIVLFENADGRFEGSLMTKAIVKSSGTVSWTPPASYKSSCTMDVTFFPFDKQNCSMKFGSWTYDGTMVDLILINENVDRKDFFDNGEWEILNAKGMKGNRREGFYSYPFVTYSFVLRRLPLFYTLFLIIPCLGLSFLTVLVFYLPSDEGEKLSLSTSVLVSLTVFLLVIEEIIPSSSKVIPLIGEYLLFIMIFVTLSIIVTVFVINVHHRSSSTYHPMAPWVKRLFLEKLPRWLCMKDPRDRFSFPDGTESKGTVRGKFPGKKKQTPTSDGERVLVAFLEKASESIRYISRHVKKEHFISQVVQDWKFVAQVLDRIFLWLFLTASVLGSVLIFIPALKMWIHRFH"}, "[5]": {"target": "α6* nAChRs (αCtxMII-sensitive) in α4KO mice (Mus musculus, UniProt Q9ERK7+Q9R0W9)", "sequence (Q9ERK7 26-501)": "as the sequence (Q9ERK7 26-501) above", "sequence (Q8BMN3 31-464, further chain)": "as the sequence (Q8BMN3 31-464, further chain) above", "sequence (Q9R0W9 31-494)": "as the sequence (Q9R0W9 31-494) above"}, "[6]": {"target": "α6* nAChRs (αCtxMII-sensitive) in α4KO/α6^L9′S mice (Mus musculus, UniProt Q9ERK7+Q9R0W9, L280S)", "sequence (Q9ERK7 26-501, stated change not applied)": "as the sequence (Q9ERK7 26-501) above", "sequence (Q8BMN3 31-464, further chain)": "as the sequence (Q8BMN3 31-464, further chain) above", "sequence (Q9R0W9 31-494 L280S)": "as the sequence (Q9R0W9 31-494) above, with L250S counted along it"}, "(non-α6) α4β2* nAChRs": {"target": "(non-α6) α4β2* nAChRs (Mus musculus, UniProt O70174+Q9ERK7)", "sequence (O70174 31-629)": "as the sequence (O70174 31-629) above", "sequence (Q9ERK7 26-501)": "as the sequence (Q9ERK7 26-501) above"}, "[7]": {"tested_on": "DA release in striatal slices", "design": "species or system mouse"}},
  "note": "Values joined by “and” are separate entries in the source; they are usually repeats but may differ in a detail not shown here. Equal entries are not always repeated. Structures can show the parent of a compound that is named as a salt.",
  "data": [
    {"smiles": "CN1CCc2cc(Cl)c(O)cc2[C@@H](c2ccccc2)C1", "note": "[[^3H]-SCH23390]", "values": [
      {"measurement": "Kd", "setting": "D1/D5 dopamine receptors", "result": "~0.1", "unit": "nM"}
    ]},
    {"smiles": "CCN1CCC[C@H]1CNC(=O)c1c(O)c(Cl)cc(Cl)c1OC", "note": "[[^3H]-raclopride]", "values": [
      {"measurement": "Kd", "setting": "D2/D3 dopamine receptors", "result": "~2", "unit": "nM"}
    ]},
    {"smiles": "CN1CCC[C@H]1c1cccnc1", "note": "[nicotine, (-)-nicotine tartrate]", "values": [
      {"measurement": "potency and efficacy for locomotor activation", "setting": "[1]", "result": "consistently reduced"},
      {"measurement": "peak locomotor response", "setting": "[1]; ip, 0.2 mg/kg", "result": "93 ± 14 ambulations/min and 53 ± 4 ambulations/min"},
      {"measurement": "concentration in brain CSF", "setting": "[2]", "result": "100 to 500", "unit": "nM"},
      {"measurement": "Rmax", "setting": "[3]", "result": "7.8 ± 0.2 units and 7.4 ± 0.4 units"},
      {"measurement": "EC50", "setting": "α6α4β2β3 nAChRs", "result": 230, "unit": "nM"},
      {"measurement": "Rmax", "setting": "[4]", "result": "4.6 ± 0.3 units and 3.2 ± 0.3 units"},
      {"measurement": "Rmax", "setting": "[5]", "result": "3.83 ± 0.13 units and 3.63 ± 0.15 units"},
      {"measurement": "Rmax", "setting": "[6]", "result": "5.24 ± 0.24 units and 4.16 ± 0.06 units"},
      {"measurement": "Rmax", "setting": "(non-α6) α4β2* nAChRs", "result": "15.8 ± 0.5 units and 14.5 ± 0.5 units"}
    ]},
    {"smiles": "NC1=N[C@H](O)[C@H]2[C@H]3O[C@]4(O)O[C@@H]([C@@H](O)[C@@]2(N1)[C@@H]4O)[C@]3(O)CO", "note": "[tetrodotoxin]", "values": [
      {"measurement": "effect on evoked DA release responses", "setting": "[7]", "result": "blocked"}
    ]}
  ]
}
